# According to US20210238139A1, “MODULATORS OF TRYPTOPHAN CATABOLISM” (E-Therapeutics PLC, priority 2018, published 2021):
# Where two headings read alike, the source gives them in different places.
# Tests used:
# [1] = system: SK-OV-3 cells; assay: Effect of compounds on tryptophan catabolism in SK-OV-3 cell line (inhibition of kynurenine production, LC-MS/MS); type: cell-based; details: SK-OV-3 cell line, 24 h incubation, kynurenine in supernatant by LC-MS/MS, read-out: IC50 Ranges (ic50 values for inhibition of Kynurenine production)
# Summary of the method: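 Kynurenine in supernatants quantified by LC-MS/MS after 24 h compound exposure (37 °C; top 30 μM, eight 3-fold steps, duplicate) in DMEM F-12 containing 6 mg/mL L-tryptophan. Cells pre-plated overnight in McCoy's 5A with 10% FBS. Viability checked in parallel by ATP luminescence.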
# [2] = target: T1, IDO1 enzyme (Homo sapiens, UniProt P14902); assay: IDO1 enzyme inhibition assay (hIDO assay kit, NFK-green); details: IDO1 enzyme 25 nM, tryptophan 100 μM, top concentration 30 μM; read-out: IDO1 Biochemical assay IC50
# T1 construct: purchased Netherlands Translational Research Center B.V. NTRC-hIDO-1K
# Method: The effect of compounds on IDO1 enzymatic activity was assessed by use of a hIDO assay kit (Netherlands Translational Research Center B.V., Cat #NTRC-hIDO-1K). IDO1 enzyme and tryptophan substrate are diluted in assay buffer. Compounds are tested at 8 consecutive 3-fold dilutions starting from 30 μM. 267 nL of compound is added per well of a 384-well plate followed by addition of 10 μL of assay buffer. IDO1 enzyme is added at a final concentration of 25 nM and pre-incubated for 30 min at room temperature in the dark. Tryptophan substrate solution is then added at final concentration of 100 μM to all wells and the plate incubated for 60 min at RT in the dark. Finally NFK-green reagent is added at ⅕ of total reaction volume and incubated for 4 h at RT in the dark. After incubation fluorescence is measured at Ex405 nm-Em535 nm using EnVision plate reader.
# (§1) IC50 values are determined using GraphPad Prism software 5.04 for Windows by plotting percent of inhibition against log 10 concentrations of compounds using a four-parametric sigmoidal curve with a variable slope.
# [3] = target: T2, TDO2 enzyme (Homo sapiens, UniProt P48775); assay: TDO2 enzyme inhibition assay (hTDO2 assay kit, NFK-green); details: TDO2 enzyme 50 nM, tryptophan 200 μM, top concentration 30 μM; read-out: TDO2 Biochemical assay IC50
# T2 construct: purchased Netherlands Translational Research Center B.V. NTRC-hTDO-1K
# Method: The effect of compounds on TDO2 enzymatic activity was assess by use of an hTDO2 assay kit (Netherlands Translational Research Center B.V., Cat #NTRC-hTDO-1K). TDO2 enzyme and tryptophan substrate are diluted in assay buffer. Compounds are tested at 8 consecutive 3-fold dilutions starting from 30 μM. 267 nL of compound is added per well of a 384-well plate followed by addition of 10 μL of assay buffer. TDO2 enzyme is added at a final concentration of 50 nM and pre-incubated for 60 min at room temperature in the dark. Tryptophan substrate solution is then added at final concentration of 200 μM to all wells and the plate incubated for 15 min at RT in the dark. Finally NFK-green reagent is added at ⅕ of total reaction volume and incubated for 4 h at RT in the dark. After incubation fluorescence is measured at Ex405 nm-Em535 nm using EnVision plate reader.
# as §1
# T2 sequence (P48775 whole entry): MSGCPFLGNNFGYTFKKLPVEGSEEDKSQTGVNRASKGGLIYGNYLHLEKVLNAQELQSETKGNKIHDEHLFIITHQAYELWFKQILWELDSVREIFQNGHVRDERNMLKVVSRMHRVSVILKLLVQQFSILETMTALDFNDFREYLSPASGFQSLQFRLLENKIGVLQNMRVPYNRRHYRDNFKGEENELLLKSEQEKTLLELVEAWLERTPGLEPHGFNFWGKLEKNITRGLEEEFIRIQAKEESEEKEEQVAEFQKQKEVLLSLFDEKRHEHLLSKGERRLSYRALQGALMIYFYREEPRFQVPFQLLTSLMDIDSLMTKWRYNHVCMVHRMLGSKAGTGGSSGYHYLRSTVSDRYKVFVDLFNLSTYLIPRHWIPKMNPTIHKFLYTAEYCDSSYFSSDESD
# T1 sequence (P14902 whole entry): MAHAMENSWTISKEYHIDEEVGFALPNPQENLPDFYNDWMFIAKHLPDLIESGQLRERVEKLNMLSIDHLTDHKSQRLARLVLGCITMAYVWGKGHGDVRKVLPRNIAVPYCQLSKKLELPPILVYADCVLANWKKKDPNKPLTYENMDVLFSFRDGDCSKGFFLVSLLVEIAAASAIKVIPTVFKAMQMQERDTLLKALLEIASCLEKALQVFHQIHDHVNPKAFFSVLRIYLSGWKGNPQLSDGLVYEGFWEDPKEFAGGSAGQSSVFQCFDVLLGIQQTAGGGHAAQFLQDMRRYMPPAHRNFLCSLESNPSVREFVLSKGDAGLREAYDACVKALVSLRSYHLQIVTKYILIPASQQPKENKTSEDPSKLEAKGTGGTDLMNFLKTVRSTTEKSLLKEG
Compound,"IC50 ([1]; Homo sapiens, SK-OV-3, 24 h)",also measured
"Cc1ccc(CN(C(=O)Nc2ccc(Cl)cc2)c2ccnn2C)o1 [Compound 220, 3-(4-chlorophenyl)-1-[(5-methyl-2-furyl)methyl]-1-(2-methylpyrazol-3-yl)urea]",> 5000 nM,IC50 [2]: > 30 µM
Cc1ccc(CN(C(=O)Nc2ccc(C#CCN)cc2)C2CCCC2)o1 [Compound 110],100 to 500 nM,IC50 [3]: > 30 µM
"Cc1ccc(CN(C(=O)Nc2ccc(N3CCOCC3)cc2)C2CCCC2)o1 [Compound 123, 1-cyclopentyl-1-[(5-methyl-2-furyl)methyl]-3-(4-morpholinophenyl)urea]",> 5000 nM,IC50 [3]: > 30 µM
"Cc1ccc(CN(C(=O)Nc2ccc(F)c(O)c2)C2CCCC2)o1 [Compound 104, 1-cyclopentyl-3-(4-fluoro-3-hydroxy-phenyl)-1-[(5-methyl-2-furyl)methyl]urea]",> 5000 nM,IC50 [3]: > 30 µM
"Cc1ccc(C(C)N(C(=O)Nc2ccc(Cl)cc2)C2CCCC2)o1 (racemic) [Compound 185, 3-(4-chlorophenyl)-1-cyclopentyl-1-[1-(5-methyl-2-furyl)ethyl]urea]",< 100 nM,IC50 [3]: > 30 µM
"O=C(Nc1ccc(Cl)cc1)N(Cc1cc2ccccc2o1)C1CCCC1 [Compound 130, 1-(benzofuran-2-ylmethyl)-3-(4-chlorophenyl)-1-cyclopentyl-urea]",< 100 nM,IC50 [3]: > 30 µM
"Cc1ccc(CN(C(=O)Nc2ccc(Cl)nc2)C2CCCC2)o1 [Compound 92, 3-(6-chloro-3-pyridyl)-1-cyclopentyl-1-[(5-methyl-2-furyl)methyl]urea]",< 100 nM,IC50 [3]: > 30 µM
"O=C(Nc1ccccc1)N(Cc1ccncc1)C1CCCC1 [Compound 74, 1-cyclopentyl-3-phenyl-1-(4-pyridylmethyl)urea]",> 5000 nM,IC50 [3]: > 30 µM
"CCc1ccc(NC(=O)N(Cc2ccccn2)C2CCCCC2)cc1 [Compound 21, 1-cyclohexyl-3-(4-ethylphenyl)-1-(2-pyridylmethyl)urea]",1000 to 5000 nM,IC50 [3]: > 30 µM
"Cc1ccc(CN(C(=O)Nc2ccc(-c3cnoc3)cc2)C2CCCC2)o1 [Compound 105, 1-cyclopentyl-3-(4-isoxazol-4-ylphenyl)-1-[(5-methyl-2-furyl)methyl]urea]",100 to 500 nM,IC50 [3]: > 30 µM
"Cc1ccc(CN(C(=O)Nc2ccc(-c3cnn(C(=O)OC(C)(C)C)c3)cc2)C2CCCC2)o1 [Compound 99, tert-butyl 4-[4-[[cyclopentyl-[(5-methyl-2-furyl)methyl]carbamoyl]amino]phenyl]pyrazole-1-carboxylate]",500 to 1000 nM,–
"Cc1ccc(CN(C(=O)Nc2ccc(-c3cscn3)cc2)C2CCCC2)o1 [Compound 106, 1-cyclopentyl-1-[(5-methyl-2-furyl)methyl]-3-(4-thiazol-4-ylphenyl)urea]",500 to 1000 nM,–
"N#Cc1cc(CN(C(=O)NCCc2ccccc2)C2CCCC2)ccc1F [Compound 51, 1-[(3-cyano-4-fluoro-phenyl)methyl]-1-cyclopentyl-3-(2-phenylethyl)urea]",> 5000 nM,–
"N#Cc1ccc(CN(C(=O)Nc2ccc(F)cc2)C2CCCC2)o1 [Compound 61, 1-[(5-cyano-2-furyl)methyl]-1-cyclopentyl-3-(4-fluorophenyl)urea]",> 5000 nM,–
"N#Cc1ccc(NC(=O)N(Cc2cc3ncccc3o2)C2CCC2)cc1 [Compound 249, 3-(4-cyanophenyl)-1-cyclobutyl-1-(furo[3,2-b]pyridin-2-ylmethyl)urea]",> 5000 nM,–
"Cc1ncc(CN(C(=O)Nc2ccc(C#N)cc2)C2CCCC2)o1 [Compound 291, 3-(4-cyanophenyl)-1-cyclopentyl-1-[(2-methyloxazol-5-yl)methyl]urea]",500 to 1000 nM,–
"O=C(Nc1ccccc1)N(Cc1cccs1)C1CCCC1 [Compound 19, 1-cyclopentyl-3-phenyl-1-(2-thienylmethyl)urea]",–,IC50 [1]: 500 to 1000 nM
"CC(c1cccc(C#N)c1)N(C(=O)Nc1ccc(C#N)cc1)C1CCCC1 (racemic) [Compound 188, 3-(4-cyanophenyl)-1-[1-(3-cyanophenyl)ethyl]-1-cyclopentyl-urea]",100 to 500 nM,–

Compound,"IC50 ([1]; Homo sapiens, SK-OV-3, 24 h)",also measured
"Cc1nocc1N(CC1CCC2(CC1)COC2)C(=O)Nc1ccc(C#N)cc1 [Compound 325, 3-(4-cyanophenyl)-(3-methylisoxazol-4-yl)-1-(2-oxaspiro[3.5]nonan-7-ylmethyl)urea]",> 5000 nM,–
"C#Cc1cnc(NC(=O)N(Cc2ccc(C)o2)C2CCCC2)nc1 [Compound 17, 1-cyclopentyl-3-(5-ethynylpyrimidin-2-yl)-1-[(5-methyl-2-furyl)methyl]urea]",100 to 500 nM,–
"O=C(Nc1ccccc1)N(Cc1cccs1)C1CCCC1 [Compound 195, 1-cyclopentyl-3-phenyl-1-(2-thienylmethyl)urea]",–,IC50 [1]: 100 to 500 nM
"O=C(Nc1ccc2c(c1)CCC2)N(Cc1cccs1)C1CCCC1 [Compound 9, 1-cyclopentyl-3-indan-5-yl-1-(2-thienylmethyl)urea]",1000 to 5000 nM,–
"Cc1ccc(CN(C(=O)Nc2ccc(-c3cnn(CCN(C)C)c3)cc2)C2CCCC2)o1 [Compound 100, 1-cyclopentyl-3-[4-[1-[2-(dimethylamino)ethyl]pyrazol-4-yl]phenyl]-1-[(5-methyl-2-furyl)methyl]urea]",> 5000 nM,–
"Cc1ccc(C(C)N(C(=O)Nc2ccc(C#N)cc2)C2CCCC2)o1 (racemic) [Compound 190, 3-(4-cyanophenyl)-1-cyclopentyl-1-[1-(5-methyl-2-furyl)ethyl]urea]",100 to 500 nM,–
"CC(C)(C)OC(=O)N1CCC(CN(C(=O)Nc2ccc(Cl)cc2)C2CCCC2)CC1 [Compound 120, tert-butyl 4-[[(4-chlorophenyl)carbamoyl-cyclopentyl-amino]methyl]piperidine-1-carboxylate]",100 to 500 nM,–
"O=C(NCCc1ccccc1)N(Cc1cccs1)C1CCCC1 [Compound 1, 1-cyclopentyl-3-(2-phenylethyl)-1-(2-thienylmethyl)urea]",1000 to 5000 nM,–
"O=C(Nc1ccc(C(F)(F)F)cc1)N(Cc1cccs1)C1CCCC1 [Compound 13, 1-cyclopentyl-1-(2-thienylmethyl)-3-[4-(trifluoromethyl)phenyl]urea]",1000 to 5000 nM,–
"O=C(Nc1ccc(Cl)cc1)N(Cc1cnccn1)C1CCCC1 [Compound 71, 3-(4-chlorophenyl)-1-cyclopentyl-1-(pyrazin-2-ylmethyl)urea]",500 to 1000 nM,–
"CCc1ccc(NC(=O)N(Cc2ccccc2Cl)C2CCCC2)cc1 [Compound 39, 1-[(2-chlorophenyl)methyl]-1-cyclopentyl-3-(4-ethylphenyl)urea]",> 5000 nM,–
"Cc1ccc(CN(C(=O)Nc2nnc(C3CCCCC3)o2)C2CCCC2)o1 [Compound 169, 3-(5-cyclohexyl-1,3,4-oxadiazol-2-yl)-1-cyclopentyl-1-[(5-methyl-2-furyl)methyl]urea]",1000 to 5000 nM,–
"Cc1ccc(CN(C(=O)Nc2ccc(Cl)cc2)c2csnc2C)o1 [Compound 328, 3-(4-chlorophenyl)-1-[(5-methyl-2-furyl)methyl]-1-(3-methylisothiazol-4-yl)urea]",< 100 nM,–
"O=C(Nc1ccccc1F)N(Cc1cccs1)C1CCCC1 [Compound 54, 1-cyclopentyl-3-(2-fluorophenyl)-1-(2-thienylmethyl)urea]",1000 to 5000 nM,–
"Cc1ncc(CN(C(=O)Nc2ccc(C#CCO)cc2)C2CCCC2)o1 [Compound 294, 1-cyclopentyl-3-[4-(3-hydroxyprop-1-ynyl)phenyl]-1-[(2-methyloxazol-5-yl)methyl]urea]",< 100 nM,–
"CCc1c(C)sc2c1CCN(C(=O)Nc1cc(C)cc(C)c1)C2c1ccccc1 (racemic) [Compound 194, N-(3,5-dimethylphenyl)-3-ethyl-2-methyl-7-phenyl-5,7-dihydro-4H-thieno[2,3-c]pyridine-6-carboxamide]",100 to 500 nM,–
"O=C(Nc1cc(Cl)nc(Cl)c1)N(Cc1cccs1)C1CCCC1 [Compound 10, 1-cyclopentyl-3-(2,6-dichloro-4-pyridyl)-1-(2-thienylmethyl)urea]",1000 to 5000 nM,–
"O=C(Nc1ccc(F)cc1)N(Cc1cnoc1)C1CCCC1 [Compound 62, 1-cyclopentyl-3-(4-fluorophenyl)-1-(isoxazol-4-ylmethyl)urea]",> 5000 nM,–
